Measurements taken from patent US11090285B2, “Treatment of circadian rhythm disorders” (Vanda Pharmaceuticals Inc., priority 2013, dated 2021).

Assays:
Non-24 patients = assay: Phase advance of circadian rhythm on initiation of treatment; format: in vivo, human; conditions: upon initiation of treatment
Method: For example, treatment of a patient who has a target bedtime of 10:00 p.m. and a target wake time of 7:00 a.m., treatment initiation can be on a day when urinary aMT6s acrophase is predicted to occur at 3:30 am. However, treatment with tasimelteon can conveniently be initiated on a day on which melatonin acrophase, e.g., using calculated urinary aMT6s acrophase, is predicted to be between about 5.5 hours before target wake time and 2.5 hours after target wake time. Without intending to be bound to a particular theory, this flexibility is apparently owing to the unusually marked effects of such active ingredient on circadian rhythm upon initiation of treatment (e.g., phase advance by as much as about 5 hours on initial treatment).

[1] = Pharmacokinetics on co-administration of tasimelteon and fluvoxamine; format: in vivo, human
Method: Twenty-four healthy male or female subjects between the ages of 18 and 55 years of age (inclusive) who were non-smokers with a body mass index (BMI) of ≥18 and ≤35 kg/m2 participated in this open-label, single-sequence study conducted at one site. On day 1, subjects were administered […] of tasimelteon.

[2] = Tasimelteon exposure with ketoconazole (CYP3A4 inhibitor); format: in vivo, human; conditions: single 20 mg dose on fifth day of ketoconazole 400 mg per day vs tasimelteon alone
Method: Therefore, in cases where an individual is co-administered a CYP3A4 inhibitor, the dose of tasimelteon administered may be less than if administered alone or in the absence of a CYP3A4 inhibitor.
For example, a pharmaceutical composition providing a dosage equivalent to a daily dosage between about 5 mg and about 15 mg of tasimelteon may be co-administered with a […] inhibitor.

CYP1A2 and CYP3A4 = assay: Isoenzymes involved in tasimelteon metabolism; format: in vitro ADME
[3] = co-administration of fluvoxamine vs tasimelteon alone

CCC(=O)NC[C@@H]1C[C@H]1c1cccc2c1CCO2 (relative stereo) [Tasimelteon, trans-N-[[2-(2,3-dihydrobenzofuran-4-yl)cycloprop-1yl]methyl]propanamide]
phase advance on initial treatment (Non-24 patients): ≤ 5 h | CL/F ([1]; Day 1, 5.667 mg tasimelteon alone): 107 ± 555 mL/min | CL/F ([1]; Day 8, 5.667 mg tasimelteon + 50 mg fluvoxamine): 189 ± 155 mL/min | AUC (inf), Geometric Mean Ratio ([1]; Day 8 vs Day 1): 653.36% | CL/F, Geometric Mean Ratio ([1]; Day 8 vs Day 1): 15.31% | Cmax, Geometric Mean Ratio ([1]; Day 8 vs Day 1): 232.74% | t½, Geometric Mean Ratio ([1]; Day 8 vs Day 1): 211.82% | increase of AUC0-inf [1, 3]: approximately 7 fold | increase of Cmax [1, 3]: approximately 2 fold | increase of tasimelteon exposure [2]: approximately 54% | isoenzymes also involved in metabolism (CYP1A2 and CYP3A4): CYP1A1, CYP2D6, CYP2C19, and CYP2C9 | major isoenzymes involved in the metabolism (CYP1A2 and CYP3A4): CYP1A2 and CYP3A4
